Assay results as given in publication PMC5107132 (European journal of pharmacology, 2016).
Marks after values point to notes of the source that are not given here.

Key:
α2β3γ2S GABAA receptors = α2β3γ2S GABAA receptors (Rattus norvegicus, UniProt P18508+P23576); assay: 3H-flunitrazepam competition binding, α2β3γ2S
Wistar rats [1] = assay: Rotarod test; assay type: in vivo, rat
α5β3γ2S GABAA receptors = α5β3γ2S GABAA receptors (Rattus norvegicus, UniProt P18508+P19969); assay: 3H-flunitrazepam competition binding, α5β3γ2S
Wistar rats [2] = assay: Intravenous pentylenetetrazole infusion test; assay type: in vivo, rat
Wistar rats [3] = assay: Grip strength; assay type: in vivo, rat; conditions: for Grip strength, peak force of experimenter's pull necessary to overcome the animal's grip: 20 min before testing
Wistar rats [4] = assay: Elevated plus maze; assay type: in vivo, rat; conditions: 1 mg/kg to 10 mg/kg i.p., 5 min
α2β3γ2 GABAA receptors = α2β3γ2 GABAA receptors (Rattus norvegicus, UniProt P18508+P23576); assay: Two-electrode voltage clamp in Xenopus oocytes, α2β3γ2; assay type: cell-based
α3β3γ2S GABAA receptors = α3β3γ2S GABAA receptors (Rattus norvegicus, UniProt P18508+P20236); assay: 3H-flunitrazepam competition binding, α3β3γ2S
α1β3γ2 GABAA receptors = α1β3γ2 GABAA receptors (Rattus norvegicus, UniProt P18508+P62813); assay: Two-electrode voltage clamp in Xenopus oocytes, α1β3γ2; assay type: cell-based; conditions: whole range of in vivo free brain concentrations obtained
[5] = In vitro hydrolytic stability study in rat plasma; assay type: in vitro ADME; conditions: for Total plasma concentration (in vitro metabolic stability): rat plasma 37 °C
Wistar rats [6] = assay: Amphetamine induced locomotor activity; assay type: in vivo, rat; conditions: 1, 2.5 and 10 mg/kg i.p.
[7] = Plasma protein and brain tissue binding; assay type: in vitro ADME, rat; conditions: rat
[8] = test system: 50 other receptor and enzyme assays; assay: NIMH PDSP screen, 50 other receptor and enzyme assays
α1β3γ2S GABAA receptors = α1β3γ2S GABAA receptors (Rattus norvegicus, UniProt P18508+P62813); assay: 3H-flunitrazepam competition binding, α1β3γ2S
non-α5GABAARs = assay: Two-electrode voltage clamp in Xenopus oocytes, non-α5 receptors; assay type: cell-based, rat; conditions: 100 nM effective concentration
[9] = Pharmacokinetic study, plasma and brain concentrations after i.p. injection
α5β3γ2 GABAA receptors = α5β3γ2 GABAA receptors (Rattus norvegicus, UniProt P18508+P19969); assay: Two-electrode voltage clamp in Xenopus oocytes, α5β3γ2; assay type: cell-based; conditions: concentrations approaching 100 nM; GABA EC3-5
α3β3γ2 GABAA receptors = α3β3γ2 GABAA receptors (Rattus norvegicus, UniProt P18508+P20236); assay: Two-electrode voltage clamp in Xenopus oocytes, α3β3γ2; assay type: cell-based
[10] = only at concentrations of about 100 nM and above
[11] = rat i.p., MP-III-022 2.5 mg/kg vs SH-053-2′F-R-CH3 10 mg/kg

## C#Cc1ccc2c(c1)C(c1ccccc1F)=N[C@H](C)c1c(C(=O)NC)ncn1-2 [MP-III-022, (R)-8-Ethynyl-6-(2-fluorophenyl)-N,4-dimethyl-4H-benzo[f]imidazo[1,5-a][1,4]diazepine-3-carboxamide]
α2β3γ2S GABAA receptors
  Ki: 360 ± 56 nM
α2β3γ2S GABAA receptors; after the dose of 10 mg/kg
  Estimated free concentration as % of Ki value for α2GABAARs: 19%
Wistar rats [1]; 10 mg/kg i.p.
  Rotarod, time remaining on the rod revolving at 15 rpm: 180 s
Wistar rats [1]; 15 mg/kg MP-III-022 in combination with 20 mg/kg XLi-093, i.p.
  Rotarod, time remaining on the rod revolving at 15 rpm: 74.61 ± 34.03 s
Wistar rats [1]; 15 mg/kg i.p.
  Rotarod, time remaining on the rod revolving at 15 rpm: 69.09 ± 25.58 s
Wistar rats [1]; 20 mg/kg i.p.
  Rotarod, time remaining on the rod revolving at 15 rpm: 6.67 ± 4.81 s
α5β3γ2S GABAA receptors
  Ki: 55 ± 17 nM
α5β3γ2S GABAA receptors; ratio of Ki values
  Selectivity in binding to α5GABAARs compared to α1-containing GABAA receptors: 15 fold
  Selectivity in binding to α5GABAARs compared to α2-containing GABAA receptors: 6 fold
  Selectivity in binding to α5GABAARs compared to α3-containing GABAA receptors: 12 fold
Wistar rats [2]; 1 mg/kg i.p.
  PTZ test, threshold dose of PTZ required to elicit seizures: 60.99 ± 6.11 mg/kg PTZ
Wistar rats [2]; 10 mg/kg i.p.
  PTZ test, threshold dose of PTZ required to elicit seizures: 50.99 ± 3.72 mg/kg PTZ
Wistar rats [2]; 1 and 10 mg/kg i.p.
  PTZ test, effect of treatment (one-way ANOVA): did not show a statistically significant effect
Wistar rats [3]; 1 mg/kg i.p.
  Grip strength, peak force of experimenter's pull necessary to overcome the animal's grip: 2.57 ± 0.08 kg/kg
Wistar rats [3]; 2.5 mg/kg i.p.
  Grip strength, peak force of experimenter's pull necessary to overcome the animal's grip: 2.41 ± 0.28 kg/kg
Wistar rats [3]; 10 mg/kg i.p.
  Grip strength, peak force of experimenter's pull necessary to overcome the animal's grip: 1.94 ± 0.22^b,d kg/kg
Wistar rats [3]; 15 mg/kg i.p.
  Grip strength, peak force of experimenter's pull necessary to overcome the animal's grip: 1.86 ± 0.16^a kg/kg
Wistar rats [3]; 20 mg/kg i.p.
  Grip strength, peak force of experimenter's pull necessary to overcome the animal's grip: 1.78 ± 0.16^c,d kg/kg
Wistar rats [3]; i.p., grip strength
  Dose at which the first muscle relaxant effect was observed: 10 mg/kg
Wistar rats [4]
  Elevated plus maze, closed and total arm entries: did not affect
  Elevated plus maze, percent of open arm entries: did not affect
  Elevated plus maze, percent of open arm time: did not affect
  Elevated plus maze, total distance traveled: did not affect
α2β3γ2 GABAA receptors; after the 15 mg/kg dose
  Estimated potentiation at α2GABAARs: 225%
α2β3γ2 GABAA receptors; after the 20 mg/kg dose
  Estimated potentiation at α2GABAARs: 280%
α2β3γ2 GABAA receptors; after the dose of 10 mg/kg
  Estimated potentiation at α2GABAARs: 138%
α2β3γ2 GABAA receptors; [10]
  Modulatory activity at α2-containing receptors: weakly modulatory
α3β3γ2S GABAA receptors
  Ki: 660 ± 170 nM
α1β3γ2 GABAA receptors
  Modulatory actions at α1-containing GABAA receptors: lacked modulatory actions
[5]; 0 min
  Total plasma concentration (in vitro metabolic stability): 0.5556 µM
[5]; 30 min
  Total plasma concentration (in vitro metabolic stability): 0.5402 ± 0.0146 µM
[5]; 60 min
  Total plasma concentration (in vitro metabolic stability): 0.5403 ± 0.0193 µM
[5]; 120 min
  Total plasma concentration (in vitro metabolic stability): 0.5472 ± 0.0007 µM
[5]; 240 min
  Total plasma concentration (in vitro metabolic stability): 0.5374 ± 0.0063 µM
[5]; rat, plasma
  In vitro metabolic stability during incubation in rat plasma: excellent in vitro metabolic stability
  remaining at 0 h, 0.2 μg/ml: 100%
  remaining at 0.5 h, 0.2 μg/ml: 97.2%
  remaining at 1 h, 0.2 μg/ml: 97.2%
  remaining at 2 h, 0.2 μg/ml: 98.5%
  remaining at 4 h, 0.2 μg/ml: 96.7%
Wistar rats [6]
  Locomotor activity during 20 min before amphetamine treatment: did not show any effect of treatment
Wistar rats [6]; 60 min
  Influence on amphetamine's effects (hyperlocomotion, 0.5 mg/kg amphetamine): lack of influence
[7]; brain tissue
  fraction unbound: 0.0661
[7]; plasma
  fraction unbound: 0.135
[8]
  Activity in 50 other receptor and enzyme assays: negligible activity
α1β3γ2S GABAA receptors
  Ki: 850 ± 110 nM
non-α5GABAARs
  Effects (potentiation) on non-α5GABAARs: ≤ 150%
[9]; [11]
  Brain AUC (0 to 180 min) relative to SH-053-2′F-R-CH3: 1.75 fold
  Plasma AUC (0 to 180 min) relative to SH-053-2′F-R-CH3: 2 fold
[9]; rat, 1 mg/kg i.p., 20 min
  Brain free (estimated) concentration: 6.38 ± 0.80 nmol/kg
[9]; rat, 2.5 mg/kg i.p., 20 min
  Brain free (estimated) concentration: 10.34 ± 3.33 nmol/kg
  Brain total concentration: 156.46 ± 50.33 nmol/kg
[9]; rat, 10 mg/kg i.p., 20 min
  Brain free (estimated) concentration: 68.12 ± 18.38 nmol/kg
  Brain total concentration: 1030.52 ± 278.03 nmol/kg
[9]; rat, 15 mg/kg i.p., 20 min
  Brain free (estimated) concentration: 317.57 ± 186.52 nmol/kg
  Brain total concentration: 4804.44 ± 2821.77 nmol/kg
[9]; rat, 20 mg/kg i.p., 20 min
  Brain free (estimated) concentration: 559.57 ± 58.58 nmol/kg
  Brain total concentration: 8465.45 ± 886.18 nmol/kg
[9]; rat, plasma, ip, 1 mg/kg, Plasma total concentration, 1 mg/kg i.p., 20 min
  concentration at 20 min: 62.4 ± 4.97 nM
α5β3γ2 GABAA receptors
  Potentiation at α5β3γ2: above 300%
α3β3γ2 GABAA receptors; after the 15 mg/kg dose
  Estimated potentiation at α3GABAARs: 175%
α3β3γ2 GABAA receptors; after the 20 mg/kg dose
  Estimated potentiation at α3GABAARs: 200%
α3β3γ2 GABAA receptors; [10]
  Modulatory activity at α3-containing receptors: weakly modulatory
